Laboratory results taken from patent publication US10287259B2, “Selenazolidine and thiazolidine compounds for treating cancer and other diseases” (The Penn State Research Foundation, priority 2016, dated 2019).

Assays:
[1] = tested on: Panc-1 cells; test: Western blot analysis of Panc-1 lysates; assay type: cell-based
Description: Whole-cell lysates were made by subjecting AS-10 treated Panc-1 cells to RIPA lysis buffer (Thermo Scientific, USA) containing protease (Roche, USA) and phosphatase inhibitor cocktails (Sigma-Aldrich, USA) (Plano et al., 2016, J. Med. Chem. 1946-1959). Lysates were spun at 15,000 rpm for 10 minutes. Resulting supernatant was stored at −80° C. until use. NuPAGE gel 4-12% (Life Technologies, Carlsbad, Calif.) was used to resolve the lysates, followed by electro-transfer to PVDF membrane. After the transfer membrane was blocked with 5% non-fat milk and probed with different antibodies. Protein of interest were detected by using enhanced Chemiluminescent reagent (Life technologies, USA). Blots were stripped using Restore Western blot stripping buffer (Thermo Scientific, USA) to save time and samples.

[2] = tested on: Panc-1 cells; test: Cell cycle analysis by flow cytometry; assay type: cell-based; conditions: serum starved 72 h; 24 h to 60 h time points
Description: Flow cytometry was used to determine the cell cycle phases (Plano et al., 2016, J. Med. Chem. 1946-1959). In brief, Panc-1 cells were serum starved for 72 h, followed by treatment with different doses of AS-10 in 10% serum containing media for different time points. Treated cells were fixed in 70% cold ethanol at the end of each time point. Cells were fixed for a minimum of 4 h at 4° C. Following fixation, cells were washed with 1×PBS and were re-suspended in Propidium iodide (PI) staining solution (0.1% (v/v) triton X-100, 20 mg DNAse-free RNAse A and 2 mg of PI in 100 mL PBS). Cells were incubated in the staining solution for 15 minutes at room temperature and then analyzed by a BD FACS Calibur (BD Biosciences) for total DNA content. Modfit software (BD Biosciences) was used to obtain the histograms.

CC(=O)Oc1ccccc1C(=O)/N=C1\[Se]CCN1C(=O)c1ccccc1OC(C)=O [AS-10, 2-((3-(2-acetoxybenzoyl)-1,3-selenazolidin-2-ylidene)carbamoyl)phenyl acetate]
cleaved caspase 8 (active) [1]: not detected | cleavage of caspase 9 ([1]; 10 μM): profound cleavage | acetylation of histones H3 and H4 ([1]; 10 μM, increasing time points): able to acetylate histones | cell cycle arrest proteins p21 and p27 ([1]; 10 μM, from 6 h for p21 and 12 h for p27): increase | PARP cleavage ([1]; Panc-1, 48 h, low dose AS-10 2.5 μM, gemcitabine 50 μM): no effect on PARP cleavage | IκBα degradation ([1]; cytosolic lysates, TNF-α stimulation, increasing dose): IκBα is not degraded | active caspase 3 (cleaved caspase 3) and cleaved PARP ([1]; increasing concentration, 24 h): increase | expression of Bcl-xL and Mcl-1 ([1]; time dependent): inhibited the expression | cell cycle effect [2]: cell cycle arrest in G1 and G2/M phase and total inhibition of S phase
